Source: paper PMC12053642, “Oral PRI-002 treatment in patients with MCI or mild AD: a randomized, double-blind phase 1b trial” (Nature Communications, 2025)
Several values for one entry are separate records, joined by “and”; a condition that tells them apart may be missing. Identical values can stand only once. Entries after “also recorded” stand apart in the source; their conditions may differ. Square brackets hold non-standard residues; d marks the D form. Peptide text beside a SMILES is read from it.

How the values were obtained:
Aβ 1-40, Aβ 1-42 = assay: CSF Aβ 1-42 and ratio Aβ42/40, Lumipulse immunoassay; assay type: in vivo, human; conditions: Day 28, one line per patient, 300 mg q.d. oral 28 d
Experimental: (§1) The effect of PRI-002 on cognition and function was tested by the CERAD+ battery and CDR-SB at baseline, Day 28, and Day 56, exploratory endpoints included the change of biomarkers (p-tau, t-tau, Aβ 1-40, Aβ 1-42 and Aβ oligomers) in CSF, blood plasma; change in CERAD+ test battery and CDR-SB scores.

[1] = test system: patients with MCI or mild dementia due to AD; assay: Adverse events assessment (AE/SAE, MedDRA 23.0), phase 1b trial; conditions: 300 mg q.d. oral 28 d
Experimental: During treatment, the frequency of study visits at the trial site was 14 days (Day 1, day 14, Day 28). A last assessment took place at Day 56. At Day 7 and Day 21 additional phone contacts for safety assessments were performed.
For safety assessment during baseline, at Day 14, 28, and 56, laboratory parameters and vital signs were measured, a physical exam was performed, and ECGs were recorded per protocol. […] In addition, nature, frequency, severity, and timing of AEs and SAEs were recorded at day 14, 28, and 56. Standardized AE reports were provided and analysed by the Data Safety and Monitoring Board (DSMB).
Primary endpoints included nature, frequency, severity, and timing of AEs and SAEs; changes in routine laboratory values, ECG, MRI, EEG, and vital signs.

p-tau = assay: CSF p-tau181, Lumipulse immunoassay; assay type: in vivo, human; conditions: Day 28, n=9, 300 mg q.d. oral 28 d
Experimental: as §1

[2] = test system: patients with MCI or mild dementia due to AD; assay: Safety laboratory (hematology, clinical chemistry, hematoserology); assay type: in vivo, human; conditions: 300 mg q.d. oral 28 d
Experimental: All safety parameters and laboratory values (urinalysis, complete blood count (CBC), Quick, partial thromboplastin time (PTT), creatinine, […] (CK), […] (CRP), alanine aminotransaminase (ALT), aspartate aminotransferase (AST)) as well as ECG, EEG, MRI, and vital signs were analyzed in a descriptive manner according to their scales (frequencies, means). In order to compare a variable between both groups (placebo vs PRI-002) at one time point, a parameter free Wilcoxon rank sum test was used. As described in the statistical analysis plan, linear mixed models with random effect were used for the comparison of longitudinal effects between both groups (placebo vs PRI-002). ANOVA was also applied to assess longitudinal effects. Since the results are similar to the linear mixed models, results are presented using linear mixed models. A 95% confidence interval was used to check whether the parameters are within their normal ranges. The p value (p < 0.05) for the word list test was not corrected for multiplicity. All statistical data analysis was performed with the certified software Statistical Analysis System (SAS) by MicroDiscovery GmbH (Berlin, Germany).

[3] = test system: patients with MCI or mild dementia due to AD; assay: Other tests of the CERAD+ battery (TMT-A, TMT-B, figure drawing, figure recall, clock, WMS delayed recall); assay type: in vivo, human; set-up: Fig Recall (Figure Recall test), mean / Clock (Clock drawing test), mean / WMS delayed recall (Wechsler Memory Scale), mean / Fig Draw (Figure Drawing test), mean / Fig Recall / Clock / WMS delayed recall / Fig Draw: scale not given here; TMT-B (Trail Making Test B), mean / TMT-A / TMT-B: unit not given here; conditions: for Clock (Clock drawing test), mean / Fig Draw (Figure Drawing test), mean / Fig Recall (Figure Recall test), mean / TMT-A (Trail Making Test A), mean / TMT-B (Trail Making Test B), mean / WMS delayed recall (Wechsler Memory Scale), mean: 300 mg q.d. oral 28 d; for Clock / Fig Draw / Fig Recall / TMT-A / TMT-B / WMS delayed recall: individual patient values, PRI-002 group
Experimental: as §1

[4] = test system: patients with MCI or mild dementia due to AD; assay: Clinical Dementia Rating Sum of Boxes (CDR-SB); assay type: in vivo, human; conditions: 300 mg q.d. oral 28 d
Experimental: as §1

Aβ oligomers = assay: CSF Aβ oligomers, sFIDA technology; assay type: in vivo, human
Experimental: as §1

[5] = EoT (Day 28), geometric mean ± SD
[6] = FU EoS (Day 56), geometric mean ± SD

`CC(C)C[C@@H](NC(=O)[C@H](NC(=O)[C@H]1CCCN1)[C@H](C)O)C(=O)N[C@H](Cc1c[nH]cn1)C(=O)N[C@@H](C(=O)N[C@H](Cc1c[nH]cn1)C(=O)N[C@H](CC(N)=O)C(=O)N[C@H](CCCNC(=N)N)C(=O)N[C@H](CCCNC(=N)N)C(=O)N[C@H](CCCNC(=N)N)C(=O)N[C@H](CCCNC(=N)N)C(=O)N[C@H](CCCNC(=N)N)C(N)=O)[C@H](C)O` [PRI-002] (H-[dP][dT][dL][dH][dT][dH][dN][dR][dR][dR][dR][dR]-NH2; N-terminus and C-terminus assumed) was tested, and the “Aβ42, individual patients” value (Aβ 1-40, Aβ 1-42) was 350 pg/mL and 512 pg/mL and 223 pg/mL and 748 pg/mL and 456 pg/mL and 595 pg/mL and 670 pg/mL and 791 pg/mL and 820 pg/mL, the “Ratio Aβ42/40, individual patients” value (Aβ 1-40, Aβ 1-42) was 0.033 and 0.050 and 0.026 and 0.042 and 0.036 and 0.045 and 0.059 and 0.056 and 0.047 and the tolerability ([1]; n=9) was “well tolerated”. For the same compound, the “SAEs or deaths during the trial” value ([1]; n=9, Day 1-56) was “No SAEs or deaths; also recorded: No SAEs”, the “AEs probably or possibly related to study treatment, number” value (“AEs probably or possibly related” for short) ([1]; Mild (grade 1), n=9) was 4 and the “AEs probably or possibly related” value ([1]; Moderate (grade 2), n=9) was 2. The “AEs probably or possibly related” value ([1]; Severe (grade 3), n=9) was 0, the “Gastrointestinal disorders, number of AEs” value ([1]; TOTAL, all grades, n=9) was 1 and the “Injury, poisoning and procedural complications, number of AEs” value ([1]; TOTAL, all grades, n=9) was 1. For the same compound, the “Musculoskeletal and connective tissue disorders, number of AEs” value ([1]; TOTAL, all grades, n=9) was 1, the “Gastrointestinal disorders, number of AEs” value ([1]; grade 1 (Mild), n=9) was 1 and the “Injury, poisoning and procedural complications, number of AEs” value ([1]; grade 1 (Mild), n=9) was 1. The “Musculoskeletal and connective tissue disorders, number of AEs” value ([1]; grade 1 (Mild), n=9) was 1, the “Nervous system disorders, number of AEs” value ([1]; grade 1 (Mild), n=9) was 5 and the “Number of subjects with at least one AE” value ([1]; grade 1 (Mild), n=9) was 4. The “Psychiatric disorders, number of AEs” value ([1]; grade 1 (Mild), n=9) was 3, the “Total number of AEs” value ([1]; grade 1 (Mild), n=9) was 14 and the “Nervous system disorders, number of AEs” value ([1]; grade 2 (Moderate), n=9) was 2. For the same compound, the “Number of subjects with at least one AE” value ([1]; grade 2 (Moderate), n=9) was 1, the “Number of subjects with at least one AE” value ([1]; grade 3 (Severe), n=9) was 0 and the “Total number of AEs” value ([1]; grade 3 (Severe), n=9) was 0. For the same compound, the “subjects with one or more AEs” value ([1]; safety population, n=9) was 56%, the “p-tau, Mean” value (p-tau) was 112.4 pg/mL and the Hematocrit ([2]; Baseline (Day 1), geometric mean ± SD) was 0.38±0.03 l/l. It also gave an Erythrocyte ([2]; Day 14, geometric mean ± SD) of 4.14 ± 0.42 pL⁻¹, a Leucocyte ([2]; Day 14, geometric mean ± SD) of 5.95 ± 1.71 nL⁻¹ and a PTT ([2]; Day 14, geometric mean ± SD) of 31.60 ± 3.95 s. For the same compound, the “Quick value (prothrombin time)” value ([2]; Day 14, geometric mean ± SD) was 96.99±21.30%, the Erythrocyte [2, 5] was 4.06 ± 0.44 pL⁻¹ and the Leucocyte [2, 5] was 5.86 ± 1.81 nL⁻¹. The PTT [2, 5] was 29.71 ± 1.94 s, the “Quick value (prothrombin time)” value [2, 5] was 101.13±9.55% and the Erythrocyte [2, 6] was 4.10 ± 0.50 pL⁻¹. The Hematocrit [2, 6] was 0.40±0.03 l/l, the Leucocyte [2, 6] was 5.66 ± 1.41 nL⁻¹ and the PTT [2, 6] was 30.96 ± 3.11 s. The “Quick value (prothrombin time)” value [2, 6] was 98.71±21.08%, the Hematocrit ([2]; Screening (Day 0), geometric mean ± SD) was 0.39±0.03 l/l and the “changes in laboratory parameters (clinical chemistry, blood count, hematoserology)” value ([2]; screening to midterm visit to end of treatment) was “no clinically relevant changes”. For the same compound, the “Clock (Clock drawing test), mean” value ([3]; Day 1 (baseline), N=9) was 1.7, the Clock ([3]; Day 1) was 1.0 and 2.0 and 3.0 and the “Fig Draw” value ([3]; Day 1) was 11 and 9 and 10 and 8. The “Fig Recall” value ([3]; Day 1) was 2 and 4 and 7 and 0 and 6 and 5 and 11 and 8, the TMT-A ([3]; Day 1) was 98 and 74 and 60 and 47 and 28 and 43 and 103 and 33 and 58 and the TMT-B ([3]; Day 1) was 240 and 283 and 160 and 205 and 100 and 77 and 141 and 80 and 132. The WMS delayed recall ([3]; Day 1) was 5 and 0 and 4 and 14 and 30 and 7 and 28 and 2, the “Clock (Clock drawing test), mean” value ([3]; Day 28, N=8) was 1.6 and the “Fig Draw (Figure Drawing test), mean” value ([3]; Day 28, N=8) was 10.8. The “Fig Recall (Figure Recall test), mean” value ([3]; Day 28, N=8) was 6.9, the “TMT-A (Trail Making Test A), mean” value ([3]; Day 28, N=8) was 58.4 and the “TMT-B (Trail Making Test B), mean” value ([3]; Day 28, N=8) was 137.5. For the same compound, the “WMS delayed recall (Wechsler Memory Scale), mean” value ([3]; Day 28, N=8) was 12.8, the Clock ([3]; Day 28) was 4.0 and 2.0 and 1.0 and the “Fig Draw” value ([3]; Day 28) was 11 and 9. For the same compound, the “Fig Recall” value ([3]; Day 28) was 0 and 6 and 5 and 11 and 9 and 4, the TMT-A ([3]; Day 28) was 98 and 51 and 60 and 36 and 50 and 86 and 26 and the TMT-B ([3]; Day 28) was 270 and 115 and 127 and 87 and 80 and 155 and 62 and 204. For the same compound, the WMS delayed recall ([3]; Day 28) was 2 and 0 and 10 and 9 and 34 and 14 and 27 and 6, the “Fig Draw (Figure Drawing test), mean” value ([3]; Day 56, N=9) was 10.9 and the “Fig Recall (Figure Recall test), mean” value ([3]; Day 56, N=9) was 7.4. For the same compound, the “TMT-A (Trail Making Test A), mean” value ([3]; Day 56, N=9) was 53.9, the “TMT-B (Trail Making Test B), mean” value ([3]; Day 56, N=9) was 121.9 and the “WMS delayed recall (Wechsler Memory Scale), mean” value ([3]; Day 56, N=9) was 15.0. For the same compound, the Clock ([3]; Day 56) was 4.0 and 2.0 and 1.0 and 3.0, the “Fig Draw” value ([3]; Day 56) was 11 and 10 and the “Fig Recall” value ([3]; Day 56) was 0 and 4 and 7 and 2 and 10 and 11. The TMT-A ([3]; Day 56) was 70 and 79 and 45 and 88 and 28 and 40 and 51 and 30 and 54, the TMT-B ([3]; Day 56) was 238 and 116 and 128 and 182 and 72 and 86 and 119 and 64 and 92 and the WMS delayed recall ([3]; Day 56) was 3 and 0 and 15 and 30 and 23 and 39 and 10. The “CDR-SB, Mean” value ([4]; Day 28, n=8) was 1.75, the “CDR-SB, Mean” value ([4]; Day 56, n=9) was 2.39 and the “Aβ42 oligomers, Mean” value (Aβ oligomers; CSF, Day 28, n=9, 300 mg q.d. oral 28 d) was 4.747 fM. The “slope Abeta oligomers, individual patients” value (Aβ oligomers; CSF, change from Day 1 to Day 28, one line per patient (n = 9), 300 mg q.d. oral 28 d) was 1.237 and 0.635 and 0.4087 and 0.1526 and 0.3147 and -0.0095 and -0.4177 and -0.1322 and 0.7258, the “changes in p-tau, t-tau, Aβ 1-40, Aβ 1-42 and Aβ oligomers in CSF” value (Aβ oligomers; Day 28 versus baseline and versus placebo, 300 mg q.d. oral 28 d) was “no significant changes” and the “relationship between changes in Aβ oligomer concentrations and PRI-002 plasma levels at Day 1” value (Aβ oligomers; Spearman, two-tailed, n = 9) was “significant inverse relationship”.
